Reference: PubChem BioAssay AID330 (DTP/NCI, 2004)
Several values for one entry are separate records, joined by “and”; a condition that tells them apart may be missing. Identical values can stand only once. Inconclusive results and toxic doses are left out.

Test system: P388 leukemia ip, CD2F1 mice, survival T/C
Test: NCI In Vivo Anticancer Drug Screen. Data for tumor model P388 Leukemia (intraperitoneal) in CD2F1 (CDF1) mice
Conditions: endpoint: median survival time, higher = longer survival
How it was run: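 Mice carrying the transplanted tumor received test compound or vehicle. Survival was recorded in each group, and the value is the treated-group measurement divided by that of the vehicle-treated control group.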

[1] = dose: 100.0 mg/kg/injection, schedule: Q04DX002 (ip), vehicle: saline with Tween-80
[2] = dose: 200.0 mg/kg/injection, schedule: Q04DX002 (ip), vehicle: saline with Tween-80
[3] = dose: 400.0 mg/kg/injection, schedule: Q04DX002 (ip), vehicle: saline with Tween-80
[4] = dose: 100.0 mg/kg/injection, schedule: Q04DX003 (ip), vehicle: saline
[5] = dose: 200.0 mg/kg/injection, schedule: Q04DX003 (ip), vehicle: saline
[6] = dose: 400.0 mg/kg/injection, schedule: Q04DX003 (ip), vehicle: saline
[7] = dose: 25.0 mg/kg/injection, schedule: Q01DX009 (ip), vehicle: saline with Tween-80
[8] = dose: 50.0 mg/kg/injection, schedule: Q01DX009 (ip), vehicle: saline with Tween-80
[9] = dose: 50.0 mg/kg/injection, schedule: Q04DX003 (ip), vehicle: saline
[10] = dose: 25.0 mg/kg/injection, schedule: Q01DX009 (ip), vehicle: other
[11] = dose: 50.0 mg/kg/injection, schedule: Q01DX009 (ip), vehicle: other

With `COC(=O)c1ccc(Cl)cc1O` the T/C (dose: 12.5 mg/kg/injection, schedule: Q01DX009 (ip), vehicle: distilled water + Tween-80) was 92 % of control, the T/C (dose: 25.0 mg/kg/injection, schedule: Q01DX009 (ip), vehicle: distilled water + Tween-80) was 100 % of control and the T/C (dose: 50.0 mg/kg/injection, schedule: Q01DX009 (ip), vehicle: distilled water + Tween-80) was 102 % of control. The T/C (dose: 100.0 mg/kg/injection, schedule: Q01DX009 (ip), vehicle: distilled water + Tween-80) was 102 % of control and the T/C (dose: 200.0 mg/kg/injection, schedule: Q01DX009 (ip), vehicle: distilled water + Tween-80) was 92 % of control.

For `O=c1[nH]c(-c2ccc(O)cc2)cc2ccccc12`, the T/C [1] was 99 % of control, the T/C [2] was 100 % of control and the T/C [3] was 100 % of control.

In the case of `CC(=O)O/C=C(/C=C/OC(C)=O)C(C/C=C(\C)C#CC=C(C)C)OC(C)=O` (centres undefined), the T/C (dose: 5.31 mg/kg/injection, schedule: Q01DX005 (ip), vehicle: saline with Tween-80) is reported as 98 % of control, the T/C (dose: 10.62 mg/kg/injection, schedule: Q01DX005 (ip), vehicle: saline with Tween-80) is reported as 103 % of control and the T/C (dose: 21.25 mg/kg/injection, schedule: Q01DX005 (ip), vehicle: saline with Tween-80) is reported as 103 % of control and 94 % of control. The T/C (dose: 42.5 mg/kg/injection, schedule: Q01DX005 (ip), vehicle: saline with Tween-80) was 87 % of control.

With `CCOC(=O)C(C(=O)OCC)C1(O)C2CCCC21` (centres undefined) the T/C [1] was 101 % of control, the T/C [2] was 101 % of control and the T/C [3] was 104 % of control.

`COc1ccc(C(=NO)c2ccc(OC)cc2)cc1` was tested, and the T/C [4] was 100 % of control, the T/C [5] was 100 % of control and the T/C [6] was 104 % of control.

With `Cc1[nH]ccc2c(C)c3nc4ccccc4c3cc12` the T/C (dose: 6.25 mg/kg/injection, schedule: Q04DX002 (ip), vehicle: water) was 108 % of control, the T/C (dose: 12.5 mg/kg/injection, schedule: Q04DX002 (ip), vehicle: water) was 121 % of control and the T/C [7] was 163 % of control. For the same molecule, the T/C (dose: 25.0 mg/kg/injection, schedule: Q04DX002 (ip), vehicle: water) was 123 % of control, the T/C [8] was 113 % of control and the T/C (dose: 100.0 mg/kg/injection, schedule: Q04DX002 (ip), vehicle: water) was 153 % of control. For the same molecule, the T/C (dose: 160.0 mg/kg/injection, schedule: Q04DX002 (ip), vehicle: distilled water + Tween-80) was 157 % of control, the T/C (dose: 200.0 mg/kg/injection, schedule: Q04DX002 (ip), vehicle: water) was 166 % of control and the T/C (dose: 320.0 mg/kg/injection, schedule: Q04DX002 (ip), vehicle: distilled water + Tween-80) was 188 % of control.

`O=C([O-])C(=O)[O-].[Co+3].[NH2-].[NH2-].[NH2-].[NH2-].[O-][Cl+3]([O-])([O-])O` was tested, and the T/C (dose: 12.5 mg/kg/injection, schedule: Q04DX003 (ip), vehicle: water) was 89 % of control, the T/C (dose: 25.0 mg/kg/injection, schedule: Q04DX003 (ip), vehicle: water) was 95 % of control and the T/C (dose: 50.0 mg/kg/injection, schedule: Q04DX003 (ip), vehicle: water) was 98 % of control. For the same molecule, the T/C (dose: 100.0 mg/kg/injection, schedule: Q04DX003 (ip), vehicle: water) was 94 % of control.

`CC(=O)N1CCCC2=C1CCCCCC2` was tested, and the T/C (dose: 12.5 mg/kg/injection, schedule: Q04DX003 (ip), vehicle: saline) was 99 % of control, the T/C (dose: 25.0 mg/kg/injection, schedule: Q04DX003 (ip), vehicle: saline) was 104 % of control and the T/C [9] was 104 % of control. The T/C [4] was 117 % of control, the T/C [5] was 101 % of control and the T/C [6] was 100 % of control.

For `O=c1c2ccccc2on1CN1CCN(Cn2oc3ccccc3c2=O)CC1`, the T/C (dose: 50.0 mg/kg/injection, schedule: Q01DX005 (ip), vehicle: water) was 106 % of control, the T/C (dose: 100.0 mg/kg/injection, schedule: Q01DX005 (ip), vehicle: water) was 108 % of control and the T/C (dose: 200.0 mg/kg/injection, schedule: Q01DX005 (ip), vehicle: water) was 111 % of control.

`Clc1ccc(-c2cc3cc4c(cc3[nH]2)Sc2ccccc2O4)cc1` was tested, and the T/C [4] was 86 % of control, the T/C [5] was 86 % of control and the T/C [6] was 98 % of control.

In the case of `CC(=O)C1=CN(Cc2ccccc2)C=C(C(C)C)C1`, the T/C [9] is reported as 98 % of control, the T/C (dose: 50.0 mg/kg/injection, schedule: Q04DX003 (ip), vehicle: suspension in saline) is reported as 104 % of control and the T/C [4] is reported as 101 % of control. The T/C (dose: 100.0 mg/kg/injection, schedule: Q04DX003 (ip), vehicle: suspension in saline) was 103 % of control, the T/C [5] was 104 % of control and the T/C (dose: 200.0 mg/kg/injection, schedule: Q04DX003 (ip), vehicle: suspension in saline) was 105 % of control.

For `COc1cc2c(cc1OC)C(C#N)(C(c1ccccc1)c1ccccc1)N(C(=O)c1ccccc1)C=C2` (centres undefined), the T/C (dose: 60.0 mg/kg/injection, schedule: Q01DX005 (ip), vehicle: saline with Tween-80) was 100 % of control, the T/C (dose: 120.0 mg/kg/injection, schedule: Q01DX005 (ip), vehicle: saline with Tween-80) was 100 % of control and the T/C (dose: 240.0 mg/kg/injection, schedule: Q01DX005 (ip), vehicle: saline with Tween-80) was 96 % of control.

`NC(=NCCSCc1ccccc1)NCCc1cnc[nH]1` was tested, and the T/C (dose: 100.0 mg/kg/injection, schedule: Q01DX001 (ip), vehicle: saline with Tween-80) was 102 % of control, the T/C (dose: 200.0 mg/kg/injection, schedule: Q01DX001 (ip), vehicle: saline with Tween-80) was 102 % of control and the T/C (dose: 400.0 mg/kg/injection, schedule: Q01DX001 (ip), vehicle: saline with Tween-80) was 98 % of control.

For `CCC1=[N+](C)C(C)(C)CC(C)O1` (centres undefined), the T/C (dose: 12.5 mg/kg/injection, schedule: Q04DX003 (ip), vehicle: saline with Tween-80) was 100 % of control, the T/C (dose: 25.0 mg/kg/injection, schedule: Q04DX003 (ip), vehicle: saline with Tween-80) was 100 % of control and the T/C (dose: 50.0 mg/kg/injection, schedule: Q04DX003 (ip), vehicle: saline with Tween-80) was 95 % of control.

`ClCCN(CCCl)c1ccc(CN2CCCCCC2)cc1` was tested, and the T/C (dose: 6.25 mg/kg/injection, schedule: Q01DX009 (ip), vehicle: saline) was 111 % of control, the T/C (dose: 12.5 mg/kg/injection, schedule: Q01DX009 (ip), vehicle: saline) was 114 % of control and the T/C (dose: 25.0 mg/kg/injection, schedule: Q01DX009 (ip), vehicle: saline) was 116 % of control.

With `COC1/C=C/OC2(C)Oc3c(C)c(O)c4c(O)c(c(CNCc5ccccc5)c(O)c4c3C2=O)NC(=O)/C(C)=C\C=C\C(C)C(O)C(C)C(O)C(C)C(OC(C)=O)C1C` (centres undefined) the T/C [10] was 92 % of control, the T/C [11] was 91 % of control and the T/C (dose: 100.0 mg/kg/injection, schedule: Q01DX009 (ip), vehicle: other) was 88 % of control. The T/C (dose: 400.0 mg/kg/injection, schedule: Q01DX009 (ip), vehicle: other) was 89 % of control.

In the case of `CCCCCC#CC(=O)OC`, the T/C [7] is reported as 109 % of control, the T/C [8] is reported as 109 % of control and the T/C (dose: 100.0 mg/kg/injection, schedule: Q01DX009 (ip), vehicle: saline with Tween-80) is reported as 104 % of control. The T/C (dose: 200.0 mg/kg/injection, schedule: Q01DX009 (ip), vehicle: saline with Tween-80) was 118 % of control.

With `COC(=O)C1(C(=O)OC)O[C@@H](c2ccccc2)[C@H]2C(=O)N(C)C(=O)[C@H]21` the T/C (dose: 60.0 mg/kg/injection, schedule: Q01DX005 (ip), vehicle: Klucel (hydroxypropylcellulose) (HPC)) was 99 % of control, the T/C (dose: 120.0 mg/kg/injection, schedule: Q01DX005 (ip), vehicle: Klucel (hydroxypropylcellulose) (HPC)) was 101 % of control and the T/C (dose: 240.0 mg/kg/injection, schedule: Q01DX005 (ip), vehicle: Klucel (hydroxypropylcellulose) (HPC)) was 110 % of control.

In the case of `CCOC(=O)N(NC(=O)c1ccc(N(CCCl)CCCl)cc1)C(C)=O`, the T/C (dose: 3.13 mg/kg/injection, schedule: Q01DX009 (ip), vehicle: other) is reported as 103 % of control, the T/C (dose: 6.25 mg/kg/injection, schedule: Q01DX009 (ip), vehicle: other) is reported as 100 % of control and the T/C (dose: 12.5 mg/kg/injection, schedule: Q01DX009 (ip), vehicle: other) is reported as 101 % of control. The T/C [10] was 111 % of control, the T/C [11] was 111 % of control and 114 % of control and the T/C (dose: 88.0 mg/kg/injection, schedule: Q01DX009 (ip), vehicle: other) was 110 % of control. The T/C (dose: 133.0 mg/kg/injection, schedule: Q01DX009 (ip), vehicle: other) was 112 % of control.

With `CC(C)CC1CCCC12NC(=O)NC2=O` (centres undefined) the T/C (dose: 50.0 mg/kg/injection, schedule: Q01DX005 (ip), vehicle: Klucel (hydroxypropylcellulose) (HPC)) was 97 % of control, the T/C (dose: 100.0 mg/kg/injection, schedule: Q01DX005 (ip), vehicle: Klucel (hydroxypropylcellulose) (HPC)) was 89 % of control and the T/C (dose: 200.0 mg/kg/injection, schedule: Q01DX005 (ip), vehicle: Klucel (hydroxypropylcellulose) (HPC)) was 93 % of control.

With `Cc1cccc(O)c1O` the T/C (dose: 100.0 mg/kg/injection, schedule: Q01DX009 (ip), vehicle: saline) was 102 % of control and the T/C (dose: 200.0 mg/kg/injection, schedule: Q01DX009 (ip), vehicle: saline) was 121 % of control and 122 % of control.
